Reference: US20240002375A1, “2-(INDAZOL-5-YL)-6-(PIPERIDIN-4-YL)-1,7-NAPHTHYRIDINE DERIVATIVES AND RELATED COMPOUNDS AS MODULATORS FOR SPLICING NUCLEIC ACIDS AND FOR THE TRE” (REMIX THERAPEUTICS INC., priority 2020, published 2024)

Tests used:
Assay type in all cases: cell-based
[1] = test system: HTT mRNA; assay: Splicing assay (RT-qPCR) of HTT mRNA alternative junction (AJ) and canonical junction (CJ); conditions: A673 or K562 cells, 24 hours; for IC50: decrease in CJ mRNA, read-out: HTT CJ IC50; for AC50: increase in AJ mRNA, read-out: HTT AJ AC50
Procedure: Compounds described herein were used to modulate RNA transcript abundance in cells. The expression of a target mRNA was measured by detecting the formation of an exon-exon junction in the canonical transcript (CJ). A compound mediated exon-inclusion event was detected by observing an increase in formation of a new junction with an alternative exon (AJ). Real-time qPCR assays were used to detect these splicing switches and interrogate the potency of various compounds towards different target genes. A high-throughput real time quantitative PCR (RT-qPCR) assay was developed to measure these two isoforms of the mRNA (CJ and AJ) for an exemplary gene, HTT, together with a control housekeeping gene, GAPDH or GUSB or PPIA, used for normalization. Briefly, the A673 or K562 cell line was treated with various compounds described herein (e.g., compounds of Formula (I) or (II)). After treatment, the levels of the HTT mRNA targets were determined from each sample of cell lysate by cDNA synthesis followed by qPCR.
Materials: • Cells-to-CT 1-step kit: ThermoFisher A25602, Cells-to-CT lysis reagent: ThermoFisher 4391851C, TagMan™ Fast Virus 1-Step Master Mix: ThermoFisher 4444436 • GAPDH: VIC-PL, ThermoFisher 4326317E (Assay: Hs99999905_ml)—used for K562/suspension cell lines • GUSB: VIC-PL, ThermoFisher 4326320E (Assay: Hs99999908 ml)—used for K562/suspension cell lines • PPIA: VIC-PL, ThermoFisher 4326316E (Assay: Hs99999904 ml)—used for A673/adherent cell lines
The A673 cell line was cultured in DMEM with 10% FBS. Cells were diluted with full growth media and plated in a 96-well plate (15,000 cells in 100 ul media per well). The plate was incubated at 37° C. with 5% CO2 for 24 hours to allow cells to adhere. An 11-point 3-fold serial dilution of the compounds was made in DMSO then diluted in media in an intermediate plate. Compounds were transferred from the intermediate plate to the cell plate with the top dose at a final concentration of 10 uM in the well. Final DMSO concentration was kept at or below 0.25%. The cell plate was returned to the incubator at 37° C. with 5% CO2 for an additional 24 hours.
The K562 cell line was cultured in IMDM with 10% FBS. For K562, cells were diluted with full growth media and plated in either a 96-well plate (50,000 cells in 50 uL media per well) or a 384-well plate (8,000-40,000 cells in 45 uL media per well). An 11-point 3-fold serial dilution of the compounds were made in DMSO then diluted in media in an intermediate plate. Compound was transferred from the intermediate plate to the cell plate with the top dose at a final concentration of 10 uM in the well. Final DMSO concentration was kept at or below 0.25%. Final volume was 100 uL for 96-well plate and 50 uL for 384-well plate. The cell plate was then placed in an incubator at 37° C. with 5% CO2 for 24 hours.
The cells were then gently washed with 50 uL-100 uL cold PBS before proceeding to addition of lysis buffer. 30 uL-50 uL of room temperature lysis buffer with DNAse I (and optionally RNAsin) was added to each well. Cells were shaken/mixed thoroughly at room temperature for 5-10 minutes for lysis to take place and then 3 uL-5 uL of room temperature stop solution was added and wells were shaken/mixed again. After 2-5 minutes, the cell lysate plate was transferred to ice for RT-qPCR reaction setup. The lysates could also be frozen at −80° C. for later use.
In some cases, a direct lysis buffer was used. An appropriate volume of 3X lysis buffer (10 mM Tris, 150 mM NaCl, 1.5%-2.5% Igepal and 0.1-1 U/uL RNAsin, pH 7.4) was directly added to either K562 or A673 cells in media and mixed by pipetting 3 times. The plates were then incubated at room temperature with shaking/rocking for 20-50 minutes to allow for lysis to take place. After this time, the cell lysate plate was transferred to ice to set up for the RT-qPCR reactions. The lysates could also be frozen at −80° C. for later use. […]

[2] = test system: HTT CJ mRNA; assay: Gene panel canonical junction qPCR splicing assay, HTT; conditions: Table 4, read-out: HTT IC50 (decrease in CJ mRNA levels)
Procedure: (§1) Compounds described herein were used to modulate RNA transcript abundance in cells. The expression of a target mRNA was measured by detecting the formation of an exon-exon junction in the canonical transcript (CJ). A compound mediated exon-inclusion event was detected by observing an increase in formation of a new junction with an alternative exon (AJ). Real-time qPCR assays were used to detect these splicing switches and interrogate the potency of various compounds towards different target genes. A high-throughput real time quantitative PCR (RT-qPCR) assay was developed to measure these two isoforms of the mRNA (CJ and AJ) for an exemplary gene, HTT, together with a control housekeeping gene, GAPDH or GUSB or PPIA, used for normalization. Briefly, the A673 or K562 cell line was treated with various compounds described herein (e.g., compounds of Formula (I) or (II)). After treatment, the levels of the HTT mRNA targets were determined from each sample of cell lysate by cDNA synthesis followed by qPCR. The data analysis was performed by first determining the ΔCt vs the housekeeper gene. This ΔCt was then normalized against the DMSO control (ΔΔCt) and converted to RQ (relative quantification) using the 2^(−ΔΔCt) equation. The RQ were then converted to a percentage response by arbitrarily setting an assay window of 3.5 ΔCt for HTT-CJ and an assay window of 9 ΔCt for HTT-AJ. […] The percentage response was then fitted to the 4 parametric logistic equation to evaluate the concentration dependence of compound treatment. The increase in AJ mRNA is reported as AC50 (compound concentration having 50% response in AJ increase) while the decrease in CJ mRNA levels is reported as IC50 (compound concentration having 50% response in CJ decrease). Additional studies were carried out for a larger panel of genes using the protocol provided above. The junction between flanking upstream and downstream exons was used to design canonical junction qPCR assays. At least one of the forward primer, reverse primer or the CY5-labeled 5′ nuclease probe (with 3′ quencher such as ZEN/Iowa Black FQ) was designed to overlap with the exon junction to capture the CJ mRNA transcript. BLAST was used to confirm the specificity of the probeset and parameters such as melting temperature, GC content, amplicon size, and primer dimer formation are considered during their design. Data for the decrease in CJ mRNA levels for three exemplary genes (HTT, SMN2, and Target C) analyzed in this panel are reported as IC50 (compound concentration having 50% response in CJ decrease).

[3] = test system: SMN2 CJ mRNA; assay: Gene panel canonical junction qPCR splicing assay, SMN2; conditions: Table 4, read-out: SMN2 IC50 (decrease in CJ mRNA levels)
Procedure: as §1

[4] = test system: Target C CJ mRNA; assay: Gene panel canonical junction qPCR splicing assay, Target C; conditions: Table 4, read-out: Target C IC50 (decrease in CJ mRNA levels)
Procedure: as §1

Row | SMILES | IC50 [1] | IC50 [2] | IC50 [3] | IC50 [4] | AC50 [1]
1 | Cn1cc2cc(-c3ccc4cc(C5CCNCC5)ccc4n3)c(O)cc2n1 [Compound 109, 2-methyl-5-[6-(piperidin-4-yl)quinolin-2-yl]indazol-6-ol] | < 100 nM | < 100 nM | < 100 nM | 100 to 1000 nM | 100 to 1000 nM
2 | Cn1cc2cc(-c3ccc4nc(N5CC[C@]67CCN[C@H]6CC[C@H]57)ccc4n3)c(O)cc2n1 [Compound 160, 5-{6-[(1R,55,85)-4,9-diazatricyclo[6.3.0.0^{1,5}]undecan-4-yl]-1,5-naphthyridin-2-yl}-2-methylindazol-6-ol] | 100 to 1000 nM | 100 to 1000 nM | < 100 nM | 1000 to 10000 nM | 100 to 1000 nM
3 | Cn1cc2cc(-c3ccc4nc(N5CCC(NC(C)(C)C)CC5)ccc4n3)c(O)cc2n1 [Compound 132, 5-[6-[4-(tert-butylamino)piperidin-1-yl]-1,5-naphthyridin-2-yl]-2-methylindazol-6-ol] | > 10000 nM | > 10000 nM | > 10000 nM | > 10000 nM | > 10000 nM
4 | Cn1cc2cc(-c3ccc4nc(N5CC[C@@H](NC6(C)CC6)C5)ccc4n3)c(O)c(F)c2n1 (single isomer, unassigned) [Compound 223] | < 100 nM | < 100 nM | < 100 nM | < 100 nM | < 100 nM
5 | Cn1cc2cc(-c3ccc4nc(N5CCNCC5)ccc4n3)c(O)cc2n1 [Compound 136] | 1000 to 10000 nM | 1000 to 10000 nM | < 100 nM | 100 to 1000 nM | 1000 to 10000 nM
6 | c1c[nH]c(-c2ccc3nc(C4CCNCC4)ccc3n2)n1 [Compound 152, 2-(1H-imidazol-2-yl)-6-(piperidin-4-yl)-1,5-naphthyridine] | > 10000 nM | > 10000 nM | 1000 to 10000 nM | > 10000 nM | > 10000 nM
7 | Cn1cc2cc(-c3ccc4nc(C5CCNCC5)ccc4n3)ccc2n1 [Compound 184, 2-(2-methylindazol-5-yl)-6-(piperidin-4-yl)-1,5-naphthyridine] | 1000 to 10000 nM | 1000 to 10000 nM | < 100 nM | 100 to 1000 nM | 100 to 1000 nM
8 | Cn1cc2cc(-c3ccc4nc(N5CC[C@H](NC6CC6)C5)ccc4n3)c(O)cc2n1 [Compound 197, 5-{6-[(35)-3-(cyclopropylamino)pyrrolidin-1-yl]-1,5-naphthyridin-2-yl}-2-methylindazol-6-ol] | < 100 nM | < 100 nM | < 100 nM | 100 to 1000 nM | < 100 nM
9 | Cc1c(O)c(-c2ccc3nc(N4CC[C@@H](NC5(C)CC5)C4)ccc3n2)cc2cn(C)nc12 (single isomer, unassigned) [Compound 225] | < 100 nM | < 100 nM | < 100 nM | < 100 nM | < 100 nM
10 | Cn1cc2cc(-c3ccc4nc(N5CC[C@@H](NC6CC6)C5)ccc4n3)c(O)cc2n1 [Compound 198] | < 100 nM | < 100 nM | < 100 nM | 100 to 1000 nM | < 100 nM
11 | Cn1cc2cc(-c3ccc4nc(N5CC[C@@H](N[C@H]6C[C@H](F)C6)C5)ccc4n3)c(O)cc2n1 [Compound 246] | < 100 nM | < 100 nM | < 100 nM | < 100 nM | < 100 nM
12 | CN1CCC12CCN(c1ccc3nc(-c4cc5cn(C)nc5cc4O)ccc3n1)C2 (centres unmarked) [Compound 181, 2-methyl-5-(6-{1-methyl-1,6-diazaspiro[3.4]octan-6-yl}-1,5-naphthyridin-2-yl) indazol-6-ol] | 100 to 1000 nM |  |  |  | 

Second part, led by results:

Row | IC50 [1] | IC50 [2] | IC50 [3] | IC50 [4] | SMILES | AC50 [1]
13 | 1000 to 10000 nM | 1000 to 10000 nM | 1000 to 10000 nM | 1000 to 10000 nM | COc1cc2nc(C)sc2cc1-c1ccc2nc(N3CCC(NC(C)(C)C)C3)ccc2n1 (centres unmarked) [Compound 176, N-tert-butyl-1-[6-(5-methoxy-2-methyl-1,3-benzothiazol-6-yl)-1,5-naphthyridin-2-yl]pyrrolidin-3-amine] | 1000 to 10000 nM
14 | < 100 nM | < 100 nM | < 100 nM | < 100 nM | Cc1nc2c(C)c(O)c(-c3ccc4nc(N5CCC(NC6CC6)C5)ccc4n3)cc2o1 (single isomer, unassigned) [Compound 217, 6-{6-[3-(cyclopropylamino)pyrrolidin-1-yl]-1,5-naphthyridin-2-yl}-2,4-dimethyl-1,3-benzoxazol-5-ol] | < 100 nM
15 | < 100 nM | < 100 nM | < 100 nM | < 100 nM | Cc1nc2c(F)c(O)c(-c3ccc4nc(N5CC[C@@H](NC(C)(C)C)C5)ccc4n3)cc2o1 (single isomer, unassigned) [Compound 256, 6-{6-[3-(tert-butylamino)pyrrolidin-1-yl]-1,5-naphthyridin-2-yl}-4-fluoro-2-methyl-1,3-benzoxazol-5-ol] | < 100 nM
16 | < 100 nM | < 100 nM | < 100 nM | < 100 nM | Cn1cc2cc(-c3ccc4nc(N5CC[C@@H](NC(C)(C)C)C5)ccc4n3)c(O)cc2n1 [Compound 153, 5-{6-[(3R)-3-(tert-butylamino)pyrrolidin-1-yl]-1,5-naphthyridin-2-yl}-2-methylindazol-6-ol] | < 100 nM
17 | > 10000 nM |  |  |  | Cn1cc2cc(-c3ccc4nc(N5CCC(NC(C)(C)C)C5)ccc4n3)c(F)cc2n1 (centres unmarked) [Compound 183] | 
